In ChEMBL document CHEMBL5344445, “Profiling the Linear Peptides of Venom from the Brazilian Scorpion Tityus serrulatus: Structural and Functional Characterization” (J Nat Prod, 2024):
The source made the active and inactive calls. No cut-off for these calls is given here. Peptide text beside a SMILES is read from it.

Assays:
[1] = Induction of Wistar rat mast cell lysis assessed as LDH release at 5 to 500 uM incubated for 5 mins in presence of NADH relative to control; type: toxicity, cell-based; settings: dose 5-500 µM
[2] = Induction of edema formation in Swiss mouse at 2 ug, I.PL measured after 180 mins relative to control; type: toxicity; settings: in vivo, other, 3 h
[3] = test system: Streptococcus pneumoniae; test: Antibacterial activity against Streptococcus pneumoniae; type: functional, organism-based
[4] = test system: Klebsiella aerogenes; test: Antibacterial activity against Enterobacter aerogenes; type: functional, organism-based
[5] = Induction of nociception in Swiss mouse at 2 ug, I.PL incubated for 60 mins by von frey test relative to control; type: toxicity; settings: in vivo, other, 1 h
[6] = test system: Staphylococcus aureus; test: Antibacterial activity against Staphylococcus aureus; type: functional, organism-based
[7] = Induction of Wistar rat mast cell degranulation assessed as beta-D-glusosaminidase release at 5 to 500 uM incubated for 15 mins relative to control; type: toxicity, cell-based; settings: 0.25 h, dose 5-500 µM
[8] = test system: Erythrocyte; test: (§1) Hemolytic activity in Wistar rat RBC at 5 to 500 uM incubated for 120 mins; type: toxicity, cell-based; settings: erythrocyte, 2 h, 500 µM, dose 5-500 µM
[9] = Effect on locomotory activity in Swiss mouse assessed as decrease in frequency at 2 ug, I.PL incubated for 3 to 15 mins by open field test relative to control; type: toxicity; set-up: scale not given: the % may be the effect or the level left; settings: in vivo, other, time 3-15 min
[10] = Induction of edema formation in Swiss mouse at 2 ug, I.PL measured after 300 mins relative to control; type: toxicity; settings: in vivo, other, 5 h
[11] = Induction of edema formation in Swiss mouse at 2 ug, I.PL measured after 60 mins relative to control; type: toxicity; settings: in vivo, other, 1 h
[12] = test system: Escherichia coli; test: Antibacterial activity against Escherichia coli; type: functional, organism-based
[13] = Induction of nociception in Swiss mouse at 2 ug, I.PL incubated for 300 mins by von frey test relative to control; type: toxicity; settings: in vivo, other, 5 h
[14] = Induction of nociception in Swiss mouse at 2 ug, I.PL incubated for 180 mins by von frey test relative to control; type: toxicity; settings: in vivo, other, 3 h
[15] = Effect on rearing activity in Swiss mouse assessed as increase in frequency at 2 ug, I.PL incubated for 3 to 15 mins by open field test relative to control; type: toxicity; settings: in vivo, other, time 3-15 min
[16] = as §1; type: toxicity, cell-based, Erythrocyte; settings: Wistar, red blood cells (erythrocytes), dose 5-500 µM, read-out: Activity

H-KPVEPVG-OH
Activity [1]: Non-Toxic
Activity ([2]; dose 2 µg): Non-Toxic
Activity [3]: inactive
Activity [4]: inactive
Activity ([5]; at 2 µg): <= 40%
Activity [6]: inactive
Activity [7]: Non-Toxic
Activity [8]: Non-Toxic
Activity ([9]; dose 2 µg): Non-Toxic
Activity ([10]; dose 2 µg): Non-Toxic
Activity ([11]; dose 2 µg): Non-Toxic
Activity [12]: inactive
Activity ([13]; at 2 µg): <= 40%
Activity ([14]; at 2 µg): <= 40%
Activity ([15]; at 2 µg): 41%

CC(C)C[C@H](NC(=O)CNC(=O)CNC(=O)[C@H](Cc1c[nH]cn1)NC(=O)[C@H](CC(=O)O)NC(=O)CNC(=O)[C@H](CO)NC(=O)[C@H](CC(C)C)NC(=O)[C@H](CC(C)C)NC(=O)[C@H](C)NC(=O)[C@H](CC(=O)O)NC(=O)[C@H](CS)NC(=O)CN)C(=O)N[C@@H](CC(C)C)C(=O)N[C@@H](CO)C(=O)N[C@@H](C)C(=O)N[C@@H](CC(N)=O)C(=O)NCC(=O)N[C@@H](CS)C(=O)O (H-GCDALLSGDHGGLLSANGC-OH)
Activity [1]: Non-Toxic
Activity ([2]; dose 2 µg): Non-Toxic
Activity [3]: inactive
Activity [4]: inactive
Activity ([5]; dose 2 µg): Non-Toxic
Activity [6]: inactive
Activity [7]: Non-Toxic
Activity [8]: Non-Toxic
Activity ([9]; dose 2 µg): Non-Toxic
Activity ([10]; dose 2 µg): Non-Toxic
Activity ([11]; dose 2 µg): Non-Toxic
Activity [12]: inactive
Activity ([13]; dose 2 µg): Non-Toxic
Activity ([14]; dose 2 µg): Non-Toxic
Activity ([15]; dose 2 µg): Non-Toxic

H-KETNAKPPA-OH
Activity [1]: Non-Toxic
Activity ([2]; dose 2 µg): Non-Toxic
Activity [3]: inactive
Activity [4]: inactive
Activity ([5]; at 2 µg): 41%
Activity [6]: inactive
Activity [7]: Non-Toxic
Activity [8]: Non-Toxic
Activity ([9]; at 2 µg): <= 40%
Activity ([10]; dose 2 µg): Non-Toxic
Activity ([11]; dose 2 µg): Non-Toxic
Activity [12]: inactive
Activity ([13]; at 2 µg): 71%
Activity ([14]; at 2 µg): 71%
Activity ([15]; at 2 µg): <= 40%

H-ILPNDK-OH
Activity [1]: Non-Toxic
Activity ([2]; dose 2 µg): Non-Toxic
Activity [3]: inactive
Activity [4]: inactive
Activity ([5]; dose 2 µg): Non-Toxic
Activity [6]: inactive
Activity [7]: Non-Toxic
hemolysis at 2 h, up to 500 µM [16]: ≤ 40%
Activity ([9]; dose 2 µg): Non-Toxic
Activity ([10]; dose 2 µg): Non-Toxic
Activity ([11]; dose 2 µg): Non-Toxic
Activity [12]: inactive
Activity ([13]; dose 2 µg): Non-Toxic
Activity ([14]; dose 2 µg): Non-Toxic
Activity ([15]; dose 2 µg): Non-Toxic

H-GLREKHVQ-OH
Activity [1]: Non-Toxic
Activity ([2]; dose 2 µg): Non-Toxic
Activity [3]: inactive
Activity [4]: inactive
Activity ([5]; dose 2 µg): Non-Toxic
Activity [6]: inactive
Activity [7]: Non-Toxic
Activity [8]: Non-Toxic
Activity ([9]; at 2 µg): <= 40%
Activity ([10]; dose 2 µg): Non-Toxic
Activity ([11]; dose 2 µg): Non-Toxic
Activity [12]: inactive
Activity ([13]; dose 2 µg): Non-Toxic
Activity ([14]; dose 2 µg): Non-Toxic
Activity ([15]; dose 2 µg): Non-Toxic

H-GKGKEILGK-OH
Activity [1]: Non-Toxic
Activity ([2]; dose 2 µg): Non-Toxic
Activity [3]: inactive
Activity [4]: inactive
Activity ([5]; dose 2 µg): Non-Toxic
Activity [6]: inactive
Activity [7]: Non-Toxic
Activity [8]: Non-Toxic
Activity ([9]; dose 2 µg): Non-Toxic
Activity ([10]; dose 2 µg): Non-Toxic
Activity ([11]; dose 2 µg): Non-Toxic
Activity [12]: inactive
Activity ([13]; dose 2 µg): Non-Toxic
Activity ([14]; dose 2 µg): Non-Toxic
Activity ([15]; dose 2 µg): Non-Toxic

H-AEIDFSGIPEDIIKQI-OH
Activity [1]: Non-Toxic
Activity ([2]; dose 2 µg): Non-Toxic
Activity [3]: inactive
Activity [4]: inactive
Activity ([5]; at 2 µg): 71%
Activity [6]: inactive
Activity [7]: Non-Toxic
Activity [8]: Non-Toxic
Activity ([9]; at 2 µg): <= 40%
Activity ([10]; dose 2 µg): Non-Toxic
Activity ([11]; dose 2 µg): Non-Toxic
Activity [12]: inactive
Activity ([13]; at 2 µg): 71%
Activity ([14]; at 2 µg): 71%
Activity ([15]; at 2 µg): <= 40%

H-ILTGKLKCK-OH
Activity [1]: Non-Toxic
Activity ([2]; dose 2 µg): Non-Toxic
Activity [3]: inactive
Activity [4]: inactive
Activity ([5]; at 2 µg): 41%
Activity [6]: inactive
Activity [7]: Non-Toxic
Activity [8]: Non-Toxic
Activity ([9]; dose 2 µg): Non-Toxic
Activity ([10]; dose 2 µg): Non-Toxic
Activity ([11]; at 2 µg): 71%
Activity [12]: inactive
Activity ([13]; at 2 µg): 41%
Activity ([14]; at 2 µg): 41%
Activity ([15]; dose 2 µg): Non-Toxic

H-IPEDIIKK-OH
Activity [1]: <= 40%
Activity ([2]; dose 2 µg): Non-Toxic
Activity [3]: inactive
Activity [4]: inactive
Activity ([5]; dose 2 µg): Non-Toxic
Activity [6]: inactive
Activity [7]: <= 40%
hemolysis at 2 h, up to 500 µM [16]: ≤ 40%
Activity ([9]; dose 2 µg): Non-Toxic
Activity ([10]; dose 2 µg): Non-Toxic
Activity ([11]; dose 2 µg): Non-Toxic
Activity [12]: inactive
Activity ([13]; dose 2 µg): Non-Toxic
Activity ([14]; dose 2 µg): Non-Toxic
Activity ([15]; dose 2 µg): Non-Toxic

H-SESNTCG-OH
Activity [1]: Non-Toxic
Activity ([2]; dose 2 µg): Non-Toxic
Activity [3]: inactive
Activity [4]: inactive
Activity ([5]; at 2 µg): <= 40%
Activity [6]: inactive
Activity [7]: Non-Toxic
Activity [8]: Non-Toxic
Activity ([9]; dose 2 µg): Non-Toxic
Activity ([10]; dose 2 µg): Non-Toxic
Activity ([11]; dose 2 µg): Non-Toxic
Activity [12]: inactive
Activity ([13]; at 2 µg): <= 40%
Activity ([14]; at 2 µg): <= 40%
Activity ([15]; at 2 µg): <= 40%

H-DEGPKSDCKP-OH
Activity [1]: Non-Toxic
Activity ([2]; at 2 µg): 71%
Activity [3]: inactive
Activity [4]: inactive
Activity ([5]; at 2 µg): 71%
Activity [6]: inactive
Activity [7]: Non-Toxic
hemolysis at 2 h, up to 500 µM [16]: ≤ 40%
Activity ([9]; dose 2 µg): Non-Toxic
Activity ([10]; at 2 µg): 71%
Activity ([11]; at 2 µg): 71%
Activity [12]: inactive
Activity ([13]; at 2 µg): 71%
Activity ([14]; at 2 µg): 71%
Activity ([15]; at 2 µg): 41%

H-KHFGKDSNFPF-NH2
Activity [1]: Non-Toxic
Activity ([2]; dose 2 µg): Non-Toxic
Activity [3]: inactive
Activity [4]: inactive
Activity ([5]; dose 2 µg): Non-Toxic
Activity [6]: inactive
Activity [7]: Non-Toxic
Activity [8]: Non-Toxic
Activity ([9]; at 2 µg): <= 40%
Activity ([10]; dose 2 µg): Non-Toxic
Activity ([11]; dose 2 µg): Non-Toxic
Activity [12]: inactive
Activity ([13]; dose 2 µg): Non-Toxic
Activity ([14]; dose 2 µg): Non-Toxic
Activity ([15]; dose 2 µg): Non-Toxic
